Assay results taken from patent US9980943B2, “Methods of treating muscular dystrophy” (BOARD OF REGENTS OF THE NEVADA SYSTEM OF HIGHER EDUCATION, …, priority 2013, dated 2018).

Columns and labels:
Type in all cases: cell-based, mouse
[1] = system: α7 integrin (LacZ reporter in α7βgal+/− myoblasts); test: Myoblast α7+/LacZ integrin FDG assay (Burkin assay in myoblasts, 96-well); conditions: α7+/LacZ myoblasts, 96-well
[2] = system: α7 integrin (LacZ reporter in α7+/LacZ myotubes); test: Myotube α7 integrin FDG assay (Burkin assay in myotubes, 96-well); conditions: myotubes
[3] = system: β-galactosidase in CMV-LacZ C2C12 myoblasts; test: CMV-LacZ secondary screen in C2C12 myoblasts (β-Gal stabilizing assay); conditions: CMV-LacZ C2C12 myoblasts
Outline: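 β-Gal level was the read-out, measured in a clonal C2C12 line expressing LacZ from a CMV promoter. Dose-response curves used six concentrations, 0.5 μM up to 40 μM, with duplicate points.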

[4] = system: β-galactosidase in CMV-LacZ C2C12 myotubes; test: CMV-LacZ secondary screen in C2C12 myotubes (β-Gal stabilizing assay); conditions: C2C12 CMV-LacZ myotubes, fold relative to DMSO
Outline: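 A secondary screen identifies compounds that stabilize β-gal independently of the native promoter, using CMV-LacZ C2C12 cells. Curves span 0.5–40 μM at six levels, in duplicate.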

| Compound | Burkin Assay in Myoblasts, signal relative to DMSO ([1]; 0.5 uM) | Burkin Assay in Myoblasts, signal relative to DMSO ([1]; 1 uM) | Burkin Assay in Myoblasts, signal relative to DMSO ([1]; 5 uM) | Burkin Assay in Myoblasts, signal relative to DMSO ([1]; 10 uM) | Burkin Assay in Myoblasts, signal relative to DMSO ([1]; 20 uM) | Burkin Assay in Myoblasts, signal relative to DMSO ([1]; 40 uM) | Burkin Assay in Myotubes, α7 integrin LacZ reporter signal relative to DMSO ([2]; 0.5 uM) | Burkin Assay in Myotubes, α7 integrin LacZ reporter signal relative to DMSO ([2]; 1 uM) | Burkin Assay in Myotubes, α7 integrin LacZ reporter signal relative to DMSO ([2]; 5 uM) | Burkin Assay in Myotubes, α7 integrin LacZ reporter signal relative to DMSO ([2]; 10 uM) | Burkin Assay in Myotubes, α7 integrin LacZ reporter signal relative to DMSO ([2]; 20 uM) | Burkin Assay in Myotubes, α7 integrin LacZ reporter signal relative to DMSO ([2]; 40 uM) | CMV-LACZ in Myoblasts (β-galactosidase activity relative to DMSO) ([3]; 0.5 uM) | CMV-LACZ in Myoblasts (β-galactosidase activity relative to DMSO) ([3]; 1 uM) | CMV-LACZ in Myoblasts (β-galactosidase activity relative to DMSO) ([3]; 5 uM) | CMV-LACZ in Myoblasts (β-galactosidase activity relative to DMSO) ([3]; 10 uM) | CMV-LACZ in Myoblasts (β-galactosidase activity relative to DMSO) ([3]; 20 uM) | CMV-LACZ in Myoblasts (β-galactosidase activity relative to DMSO) ([3]; 40 uM) | CMV-LACZ in Myotubes, signal relative to DMSO ([4]; 0.5 uM) | CMV-LACZ in Myotubes, signal relative to DMSO ([4]; 1 uM) | other results |
| --- | --- | --- | --- | --- | --- | --- | --- | --- | --- | --- | --- | --- | --- | --- | --- | --- | --- | --- | --- | --- | --- |
| O=C(N/N=C/c1c[nH]c2ccccc12)c1cc(Cl)ccc1O [MLS001196572-01] | 0.8826 | 0.7626 | 1.224 | 0.9483 | 0.9362 | 0.9345 | 0.9236 | 0.8882 | 1.148 | 0.9294 | 0.9805 | 0.7181 | 1.0105 | 1.3172 | 1.0605 | 0.9456 | 1.0767 | 1.0778 | 0.9632 | 0.9379 | CMV-LACZ in Myotubes, signal relative to DMSO ([4]; 5 uM): 0.9853; CMV-LACZ in Myotubes, signal relative to DMSO ([4]; 10 uM): 1.0223; CMV-LACZ in Myotubes, signal relative to DMSO ([4]; 20 uM): 1.1456; CMV-LACZ in Myotubes, signal relative to DMSO ([4]; 40 uM): 1.1422 |
| CN(CCC1CCCCO1)C(=O)CCc1nnc(CCCCc2ccccc2)o1 (stereo not drawn) [MLS000735021-01] | 0.9402 | 0.9246 | 0.9982 | 0.9765 | 1.025 | 0.9941 | 1.013 | 1.009 | 0.9137 | 1.006 | 0.8444 | 0.8523 | 0.8683 | 1.1646 | 0.9756 | 0.9907 | 1.2130 | 0.9767 | 1.0105 | 1.0221 | CMV-LACZ in Myotubes, signal relative to DMSO ([4]; 5 uM): 0.9548; CMV-LACZ in Myotubes, signal relative to DMSO ([4]; 10 uM): 0.9616; CMV-LACZ in Myotubes, signal relative to DMSO ([4]; 20 uM): 1.0378; CMV-LACZ in Myotubes, signal relative to DMSO ([4]; 40 uM): 1.0778 |
| N/C(=N\OC(=O)c1cccc(C(F)(F)F)c1)c1cnccn1 [MLS001098105-01] | 0.9449 | 1.029 | 0.9936 | 0.974 | 1.075 | 1.135 | 1.052 | 1.053 | 0.916 | 0.8354 | 0.8142 | 0.8459 | 1.4689 | 0.8054 | 0.9282 | 0.9421 | 1.0381 | 0.8704 | 0.9248 | 1.2543 | CMV-LACZ in Myotubes, signal relative to DMSO ([4]; 5 uM): 0.9211; CMV-LACZ in Myotubes, signal relative to DMSO ([4]; 10 uM): 1.3183; CMV-LACZ in Myotubes, signal relative to DMSO ([4]; 20 uM): 0.9671; CMV-LACZ in Myotubes, signal relative to DMSO ([4]; 40 uM): 1.2553 |
| COc1ccccc1C(=O)OCc1ccc2sc(C)nc2c1 [MLS001006798-01] | 1.191 | 0.9282 | 1.133 | 1.008 | 1.118 | 1.016 | 0.9345 | 1.042 | 1.06 | 0.8906 | 0.9746 | 0.8886 | 0.8334 | 1.0326 | 1.1509 | 1.0189 | 0.9622 | 0.8263 | 1.0419 | 0.9648 | CMV-LACZ in Myotubes, signal relative to DMSO ([4]; 5 uM): 1.2236; CMV-LACZ in Myotubes, signal relative to DMSO ([4]; 10 uM): 1.0267; CMV-LACZ in Myotubes, signal relative to DMSO ([4]; 20 uM): 0.9953; CMV-LACZ in Myotubes, signal relative to DMSO ([4]; 40 uM): 1.0976 |
| Nc1cccc(/C=C/C(=O)O)c1 [MLS000777780-01] | 1.136 | 1.056 | 0.9439 | 1.248 | 0.9133 | 0.7231 | 1.047 | 0.9837 | 0.8697 | 0.9393 | 0.8814 | 0.7756 | 0.8779 | 0.9063 | 0.9893 | 1.0126 | 1.3393 | 0.9463 | 0.8914 | 0.8838 | CMV-LACZ in Myotubes, signal relative to DMSO ([4]; 5 uM): 1.0471; CMV-LACZ in Myotubes, signal relative to DMSO ([4]; 10 uM): 0.8808; CMV-LACZ in Myotubes, signal relative to DMSO ([4]; 20 uM): 0.9316; CMV-LACZ in Myotubes, signal relative to DMSO ([4]; 40 uM): 1.0474 |
